Reference: patent publication US20080242663A1, “NOVEL PYRIMIDINE DERIVATIVES 698” (ASTRAZENECA AB, priority 2007, published 2008)

Target: T1, recombinant EphB4 (Homo sapiens, UniProt P54760)
T1 construct: amino acids 563-987; Swiss-Prot Acc; No. P54760; purchased ProQinase GmbH 0178-0000-3
T1 sequence (P54760 563-987): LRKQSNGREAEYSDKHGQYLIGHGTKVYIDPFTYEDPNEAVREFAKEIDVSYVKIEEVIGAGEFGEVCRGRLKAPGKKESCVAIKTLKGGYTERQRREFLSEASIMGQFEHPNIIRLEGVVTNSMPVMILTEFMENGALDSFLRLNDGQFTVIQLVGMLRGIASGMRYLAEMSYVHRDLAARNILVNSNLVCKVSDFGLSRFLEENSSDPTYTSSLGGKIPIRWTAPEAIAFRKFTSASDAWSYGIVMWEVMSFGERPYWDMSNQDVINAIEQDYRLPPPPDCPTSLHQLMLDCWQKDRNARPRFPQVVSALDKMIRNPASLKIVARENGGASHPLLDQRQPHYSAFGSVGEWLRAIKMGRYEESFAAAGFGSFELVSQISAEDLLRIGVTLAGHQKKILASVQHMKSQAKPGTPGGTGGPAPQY
Test: In vitro EphB4 enzyme assay (Alphascreen)
Assay type: biochemical
Summary of the method: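 Recombinant EphB4 phosphorylated biotin-poly-GAT with Mg-ATP for 1 hr at room temperature; EDTA stop, then Alphascreen donor/acceptor (anti-phosphotyrosine) beads for 20 hrs in the dark. After minimum subtraction, signal plotted against compound concentration to derive IC50.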

Compound | IC50 [nM]
Cc1ccc(CO)cc1N(C)c1ccnc(Nc2cc(OC3CCC3)cc(N3CCOCC3)c2)n1 [Example 17.5, [3-[[2-[(3-cyclobutyloxy-5-morpholin-4-yl-phenyl)amino]pyrimidin-4-yl]-methyl-amino]-4-methyl-phenyl]methanol] | 951
COC(C)CCOc1cc(Nc2nccc(N(C)c3cc(CO)ccc3C)n2)cc(N2CCOCC2)c1 (centres unmarked) [Example 17.6, [3-[[2-[[3-(3-methoxybutoxy)-5-morpholin-4-yl-phenyl]amino]pyrimidin-4-yl]-methyl-amino]-4-methyl-phenyl]methanol] | 1210
CCOCCOc1cc(Nc2nccc(N(C)c3cc(CO)ccc3C)n2)cc(N2CCOCC2)c1 [Example 17.7, [3-[[2-[[3-(2-ethoxyethoxy)-5-morpholin-4-yl-phenyl]amino]pyrimidin-4-yl]-methyl-amino]-4-methyl-phenyl]methanol] | 639
Cc1ccc(CO)cc1N(C)c1ccnc(Nc2cc(OC3CCOC3)cc(N3CCOCC3)c2)n1 (centres unmarked) [Example 17.8, [4-methyl-3-[methyl-[2-[[3-morpholin-4-yl-5-(oxolan-3-yloxy)phenyl]ami-no]pyrimidin-4-yl]amino]phenyl]methanol] | 481
Cc1ccc(CO)cc1N(C)c1ccnc(Nc2cc(O[C@H]3CCOC3)cc(N3CCOCC3)c2)n1 [Example 17.9, [4-methyl-3-[methyl-[2-[[3-morpholin-4-yl-5-[(3S)-oxolan-3-yl]oxyphenyl]ami-no]pyrimidin-4-yl]amino]phenyl]methanol] | 443
Cc1ccc(CO)cc1N(C)c1ccnc(Nc2cc(C(=O)N3CCCC3)cc(N3CCOCC3)c2)n1 [Example 18.2] | 62.3
Cc1ccc(CO)cc1N(C)c1ccnc(Nc2cc(C(=O)NCC(C)C)cc(N3CCOCC3)c2)n1 [Example 18.3, 3-[[4-[[5-(hydroxymethyl)-2-methyl-phenyl]-methyl-amino]pyrimidin-2-yl]amino]-N-(2-methylpropyl)-5-morpholin-4-yl-benzamide] | 246
CCN(C)C(=O)c1cc(Nc2nccc(N(C)c3cc(CO)ccc3C)n2)cc(N2CCOCC2)c1 [Example 18.4, N-ethyl-3-[[4-[[5-(hydroxymethyl)-2-methyl-phenyl]-methyl-amino]pyrimidin-2-yl]amino]-N-methyl-5-morpholin-4-yl-benzamide] | 75.3
Cc1ccc(CO)cc1N(C)c1ccnc(Nc2cc(C(=O)NCC3CC3)cc(N3CCOCC3)c2)n1 [Example 18.5, N-(cyclopropylmethyl)-3-[[4-[[5-(hydroxymethyl)-2-methyl-phenyl]-methyl-amino]pyrimidin-2-yl]amino]-5-morpholin-4-yl-benzamide] | 477
Cc1ccc(CO)cc1N(C)c1ccnc(Nc2cc(C(=O)N(C)C(C)C)cc(N3CCOCC3)c2)n1 [Example 18.6, 3-[[4-[[5-(hydroxymethyl)-2-methyl-phenyl]-methyl-amino]pyrimidin-2-yl]amino]-N-methyl-5-morpholin-4-yl-N-propan-2-yl-benzamide] | 342
COCCN(C)C(=O)c1cc(Nc2nccc(N(C)c3cc(CO)ccc3C)n2)cc(N2CCOCC2)c1 [Example 18.7, 3-[[4-[[5-(hydroxymethyl)-2-methyl-phenyl]-methyl-amino]pyrimidin-2-yl]amino]-N-(2-methoxyethyl)-N-methyl-5-morpholin-4-yl-benzamide] | 118
CN(C)C(=O)c1cc(Nc2nccc(N(C)c3cccc(Cl)c3)n2)cc(N2CCOCC2)c1 [Example 19.1, 3-[[4-[(3-chlorophenyl)-methyl-amino]pyrimidin-2-yl]amino]-N,N-dimethyl-5-morpholin-4-yl-benzamide] | 419
CN(CCO)C(=O)c1cc(Nc2nccc(N(C)c3cccc(Cl)c3)n2)cc(N2CCOCC2)c1 [Example 19.2, 3-[[4-[(3-chlorophenyl)-methyl-amino]pyrimidin-2-yl]amino]-N-(2-hydroxyethyl)-N-methyl-5-morphohn-4-yl-benzamide] | 395
COCCN(C)C(=O)c1cc(Nc2nccc(N(C)c3cccc(Cl)c3)n2)cc(N2CCOCC2)c1 [Example 19.3, 3-[[4-[(3-chlorophenyl)-methyl-amino]pyrimidin-2-yl]amino]-N-(2-methoxyethyl)-N-methyl-5-morpholin-4-yl-benzamide] | 571
CN(CCCO)C(=O)c1cc(Nc2nccc(N(C)c3cccc(Cl)c3)n2)cc(N2CCOCC2)c1 [Example 19.4, 3-[[4-[(3-chlorophenyl)-methyl-amino]pyrimidin-2-yl]amino]-N-(3-hydroxypropyl)-N-methyl-5-morpholin-4-yl-benzamide] | 295
C[C@H](O)CN(C)C(=O)c1cc(Nc2nccc(N(C)c3cccc(Cl)c3)n2)cc(N2CCOCC2)c1 [Example 19.5, 3-[[4-[(3-chlorophenyl)-methyl-amino]pyrimidin-2-yl]amino]-N-[(2S)-2-hydroxypropyl]-N-methyl-5-morpholin-4-yl-benzamide] | 181

Compound | IC50 [nM]
C[C@@H](CO)N(C)C(=O)c1cc(Nc2nccc(N(C)c3cccc(Cl)c3)n2)cc(N2CCOCC2)c1 [Example 19.6] | 339
CCN(C)C(=O)c1cc(Nc2nccc(N(C)c3cccc(Cl)c3)n2)cc(N2CCOCC2)c1 [Example 19.7, 3-[[4-[(3-chlorophenyl)-methyl-amino]pyrimidin-2-yl]amino]-N-ethyl-N-methyl-5-morpholin-4-yl-benzamide] | 648
CC(C)N(C)C(=O)c1cc(Nc2nccc(N(C)c3cccc(Cl)c3)n2)cc(N2CCOCC2)c1 [Example 19.8] | 1450
CN(c1cccc(Cl)c1)c1ccnc(Nc2cc(C(=O)N3CCCC3)cc(N3CCOCC3)c2)n1 [Example 19.9] | 754
CN(c1cccc(Cl)c1)c1ccnc(Nc2cc(C(=O)N3CCOCC3)cc(N3CCOCC3)c2)n1 [Example 19.10, [3-[[4-[(3-chlorophenyl)-methyl-amino]pyrimidin-2-yl]amino]-5-morpholin-4-yl-phenyl]-morpholin-4-yl-methanone] | 656
CN1CCN(C(=O)c2cc(Nc3nccc(N(C)c4cccc(Cl)c4)n3)cc(N3CCOCC3)c2)CC1 [Example 19.11, [3-[[4-[(3-chlorophenyl)-methyl-amino]pyrimidin-2-yl]amino]-5-morpholin-4-yl-phenyl]-(4-methylpiperazin-1-yl)methanone] | 207
CN(c1cccc(Cl)c1)c1ccnc(Nc2cc(C(=O)N3CCC(O)CC3)cc(N3CCOCC3)c2)n1 [Example 19.12, [3-[[4-[(3-chlorophenyl)-methyl-amino]pyrimidin-2-yl]amino]-5-morpholin-4-yl-phenyl]-(4-hydroxy-1-piperidyl) methanone] | 234
CN(c1cccc(Cl)c1)c1ccnc(Nc2cc(C(=O)NC3CCC3)cc(N3CCOCC3)c2)n1 [Example 19.13, 3-[[4-[(3-chlorophenyl)-methyl-amino]pyrimidin-2-yl]amino]-N-cyclobutyl-5-morpholin-4-yl-benzamide] | 2080
CC(C)NC(=O)c1cc(Nc2nccc(N(C)c3cccc(Cl)c3)n2)cc(N2CCOCC2)c1 [Example 19.14, 3-[[4-[(3-chlorophenyl)-methyl-amino]pyrimidin-2-yl]amino]-5-morpholin-4-yl-N-propan-2-yl-benzamide] | 1180
COCC(C)NC(=O)c1cc(Nc2nccc(N(C)c3cccc(Cl)c3)n2)cc(N2CCOCC2)c1 (centres unmarked) [Example 19.15, 3-[[4-[(3-chlorophenyl)-methyl-amino]pyrimidin-2-yl]amino]-N-(1-methoxypropan-2-yl)-5-morpholin-4-yl-benzamide] | 1100
CN(c1cccc(Cl)c1)c1ccnc(Nc2cc(C(=O)NCC3CC3)cc(N3CCOCC3)c2)n1 [Example 19.16, 3-[[4-[(3-chlorophenyl)-methyl-amino]pyrimidin-2-yl]amino]-N-(cyclopropylmethyl)-5-morpholin-4-yl-benzamide] | 1970
CC(C)CNC(=O)c1cc(Nc2nccc(N(C)c3cccc(Cl)c3)n2)cc(N2CCOCC2)c1 [Example 19.17, 3-[[4-[(3-chlorophenyl)-methyl-amino]pyrimidin-2-yl]amino]-N-(2-methylpropyl)-5-morphohn-4-yl-benzamide] | 2830
COCCNC(=O)c1cc(Nc2nccc(N(C)c3cccc(Cl)c3)n2)cc(N2CCOCC2)c1 [Example 19.18, 3-[[4-[(3-chlorophenyl)-methyl-amino]pyrimidin-2-yl]amino]-N-(2-methoxyethyl)-5-morpholin-4-yl-benzamide] | 614
CN(c1cccc(Cl)c1)c1ccnc(Nc2cc(C(=O)NC(C)(C)CO)cc(N3CCOCC3)c2)n1 [Example 19.19, 3-[[4-[(3-chlorophenyl)-methyl-amino]pyrimidin-2-yl]amino]-N-(1-hydroxy-2-methyl-propan-2-yl)-5-morpholin-4-yl-benzamide] | 1050
CN(c1cccc(Cl)c1)c1ccnc(Nc2cc(C(=O)NC(C)(C)C)cc(N3CCOCC3)c2)n1 [Example 19.20, 3-[[4-[(3-chlorophenyl)-methyl-amino]pyrimidin-2-yl]amino]-5-morpholin-4-yl-N-tert-butyl-benzamide] | 3090
C[C@@H](CO)NC(=O)c1cc(Nc2nccc(N(C)c3cccc(Cl)c3)n2)cc(N2CCOCC2)c1 [Example 19.21, 3-[[4-[(3-chlorophenyl)-methyl-amino]pyrimidin-2-yl]amino]-N-[(2S)-1-hydroxypropan-2-yl]-5-morpholin-4-yl-benzamide] | 527
